# Test results taken from US9128081B2, “TDP-43-storing cell model” (TOKYO METROPOLITAN INSTITUTE OF MEDICAL SCIENCE, priority 2008, dated 2015).
# Entries after “also recorded” stand apart in the source; their conditions may differ. Where a SMILES comes first, the peptide text is derived from it. The star is where a group is joined. Cbz = O=C(OCc1ccccc1)*
# Columns and labels:
# Format in all cases: cell-based, human
# [1] = system: SH-SY5Y cells expressing wild-type TDP-43; experiment: Protease inhibitor treatment of wild-type TDP-43-expressing cells, confocal laser microscope; conditions: inhibitor 20 μM, 37° C., 6 hours
# Experimental: (§1) Each of the above-described various plasmid vectors (pcDNA3 or pEGFP system, 1 μg) was integrated into SH-SY5Y cell using FuGENE6 transfection reagent (Roche Diagnostics). FuGENE6 at 3-fold volume of the total plasmid amount was mixed with the plasmid, left to stand at room temperature for 15 minutes, and then mixed with the cell solution. The resultant was cultured for 2-3 days, and used for preparation of cell lysates or immunohistological staining.
# SH-SY5Y cells cultured on glass covers were mixed with each of the various expression vectors (1 μg) and added in the presence of FuGENE6. After two days of cultivation, cell immobilization or protease inhibitor treatment was carried out. In the protease inhibitor treatment, a final concentration of 20 μM of MG132 (proteasome inhibitor) or carbobenzoxy-leucyl-leucinal (zLL: calpain inhibitor) was added to the cell, and cultured at 37° C. for 6 hours. Thereafter, the cell was immobilized in a 4% paraformaldehyde solution. […] After washing with 50 mM Tris-HCl containing 0.05% Tween 20 and 150 mM NaCl (pH 7.5) (TBS-T), the cell was caused to react with a fluorescence-labeled secondary antibody at 37° C. for an hour. […] The resultant was sealed on a glass slide, and then analyzed with a confocal laser microscope (Carl Zeiss). […]
# [2] = system: SH-SY5Y cells expressing NLS1-deficient mutant TDP-43; experiment: Protease inhibitor treatment of NLS1-deficient mutant-expressing cells, confocal laser microscope; conditions: inhibitor 20 μM, 6 hours; for inclusion formation, anti-pS409/410 staining: inclusion diameter about 10 μm
# Experimental: as §1
# (§2) SH-SY5Y cells cultured on glass covers were mixed with each of the various expression vectors (1 μg) and added in the presence of FuGENE6. After two days of cultivation, cell immobilization or protease inhibitor treatment was carried out. In the protease inhibitor treatment, a final concentration of 20 μM of MG132 (proteasome inhibitor) or carbobenzoxy-leucyl-leucinal (zLL: calpain inhibitor) was added to the cell, and cultured at 37° C. for 6 hours. Thereafter, the cell was immobilized in a 4% paraformaldehyde solution. […] After washing with 50 mM Tris-HCl containing 0.05% Tween 20 and 150 mM NaCl (pH 7.5) (TBS-T), the cell was caused to react with a fluorescence-labeled secondary antibody at 37° C. for an hour. […] The resultant was sealed on a glass slide, and then analyzed with a confocal laser microscope (Carl Zeiss).
# (§3) The primary antibody and the fluorescence-labeled secondary antibody used were as follows. • Primary antibody: • anti-TARDBP (ProteinTech, 1:1000 dilution); • anti-pS409/410 (antibody (antibody that specifically binds to TDP-43 aggregates) obtained by using, as an antigen, a peptide in which Ser residues at positions 409 and 410 of TDP-43 are both phosphorylated, 1:500 dilution); • anti-ubiquitin (MAB1510, CHEMICON, 1:500 dilution) • Fluorescence-labeled secondary antibody: • FITC-labeled anti-rabbit IgG (anti-rabbit immunoglobulin, FITC-labeled, Product number: F9887, Sigma, 1:500 dilution); • rhodamine-labeled anti-mouse IgG (anti-mouse immunoglobulin, TRITC-labeled, Product number: T2402, Sigma, 1:500 dilution) […]
# [3] = system: SH-SY5Y cells expressing NLS2-deficient mutant TDP-43; experiment: Protease inhibitor treatment of NLS2-deficient mutant-expressing cells, confocal laser microscope; conditions: inhibitor 20 μM, 6 hours; for inclusion formation / expression pattern, anti-TARDBP staining: 37° C.
# Experimental: as §1, §2, §3
# [4] = system: SH-SY5Y cells expressing pEGFP-TDP 162-414 (GFP-TDP 162-414); experiment: Suppression of formation of intracellular TDP-43 inclusions by low-molecular compounds (GFP-TDP 162-414); conditions: enhanced concentration-dependently, 3 days after addition
# Experimental: (§4) The cell used was human neuroblast cell line SH-SY5Y, while pEGFP-TDP 162-414 (GFP-TDP 162-414) and pcDNA3-TDP delta NLS1&2 (TDP delta NLS1&2) which gave more significant formation of intracellular inclusions among various TDP-43 mutants were used to search for an inhibitor for the above-described inclusion formation.
# (§5) Gene transfection into SH-SY5Y cell was carried out according to the method described in “Cultivation of SH-SY5Y cell and integration of plasmid vector” above, where 1 μg of each of the various plasmids was transfected into the cell with three-fold volume of a transfection reagent (FuGENE6: 3 μl).
# (§6) Treatment with a candidate inhibitor took place two hours after gene transfection. As candidate inhibitors, methylene blue and dimebon were examined. […] The concentrations of methylene blue were determined to take the above concentrations by considering the concentration conditions that have no damage on cell proliferation. On the other hand, the concentrations of dimebon were determined by referring to a publication (Jun Wu et al., Molecular Neurodegeneration, 2008, vol. 3, p. 15), and the preparation method (suspension in sterile water) was carried out according to the instruction provided by the reagent supplier. […]
# Fluorescence-Labeled Secondary Antibody: • Alexa-568-labeled anti-mouse IgG (1:500 dilution) […]
# [5] = system: SH-SY5Y cells expressing pcDNA3-TDP delta NLS1&2 (TDP delta NLS1&2); experiment: Suppression of formation of intracellular TDP-43 inclusions by low-molecular compounds (TDP delta NLS1&2); conditions: enhanced concentration-dependently, 3 days after addition
# Experimental: as §4, §5
# as §6, with “transfection.” for “transfection. As candidate inhibitors, methylene blue and dimebon were examined.”
# Fluorescence-Labeled Secondary Antibody: • Fluorescein isothiocyanate (FITC)-labeled anti-rabbit IgG (Sigma, 1:500 dilution) • Alexa-568-labeled anti-mouse IgG (1:500 dilution) […]
# [6] = methylene blue 0.05 μM, FIGS. 19 and 20
smiles,measurement,setting,value
CC(C)C[C@@H](C=O)NC(=O)[C@H](CC(C)C)NC(=O)[C@H](CC(C)C)NC(=O)OCc1ccccc1 [MG132] (Cbz-Leu-Leu-Leu-aldehyde),"inclusion formation, anti-TARDBP staining",[1],did not show significant difference from MG132-free cases
same,"inclusion formation, anti-TARDBP staining",[2]; 37° C.,did not show significant difference from MG132-free cases; also recorded: cytoplasmic inclusions were not observed
same,"inclusion formation, anti-pS409/410 staining",[2],anti-pS409/410-positive cytoplasmic inclusions were observed
same,"inclusion formation / expression pattern, anti-TARDBP staining",[3],inclusions were found in the nucleus
same,"inclusion formation, anti-pS409/410 and anti-ubiquitin staining",[3]; inclusion diameter about 10 μm,emergence of intranuclear inclusions positive to both anti-pS409/410 and anti-ubiquitin
Cc1ccc2c(c1)c1c(n2CCc2ccc(C)nc2)CCN(C)C1 [dimebon],inhibition effect on formation of intracellular TDP-43 inclusions,"[4]; dimebon 20 μM, FIGS. 21 and 22",inhibition effect of dimebon was also confirmed
same,inhibition effect on formation of intracellular TDP-43 inclusions,"[5]; dimebon 20 μM, FIGS. 21 and 22",inhibition effect of dimebon was also confirmed
CN(C)c1ccc2nc3ccc(=[N+](C)C)cc-3sc2c1 [methylene blue],inhibition effect on formation of intracellular TDP-43 inclusions,[4]; [6],inhibition effect of methylene blue was confirmed
same,inhibition effect on formation of intracellular TDP-43 inclusions,[5]; [6],inhibition effect of methylene blue was confirmed
"CC(C)C[C@@H](C=O)NC(=O)[C@H](CC(C)C)NC(=O)OCc1ccccc1 [zLL, carbobenzoxy-leucyl-leucinal]","inclusion formation, anti-pS409/410 staining",[2],no intracellular inclusion was observed
same,"inclusion formation / expression pattern, anti-TARDBP staining",[3],no particular change was found in the expression pattern
